Results on two molecules are retold here after patent publication US6319902A, “Peptide derivatives having thiazolyl-alanine residue” (Shionogi & Co., Ltd., priority 1999, dated 2001).

What all share (type): in vivo
Data set [1] in a line: Change of blood glucose levels after administration of the test compounds to rats. The following applies: for blood glucose level as a percentage compared to the baseline level (vehicle-treated rats = 100%): 50 μmol/kg intravenously.
Data set [2] has as its system Reserpine-induced hypothermia mice. The experiment in a line: Anti-reserpine action after intravenous and intracerebroventicular administration of test compounds. The following applies: for Dose which can increase the average of body temperatures at 1° C. for 180 min in reserpine-induced hypothermia mice, administered intracerebroventicularly: intracerebroventicular, calculated from AUC for 180 min after 0.21 μmol/kg. How it is done: Anti Recerpine Action After Intravenous and Intracerebroventicular Administration of Test Compounds
Recerpine-induced hypothermia mice (ddY, male) were prepared by the administration of reserpine (3 mg/kg) at 18 hours before test compounds administration. Mice with their body temperature about 25° C. were used in the experiment. Test compounds were solubilized in saline and 0.1 ml (1 μmol/kg) of them were administered intravenously and 0.005 ml (0.21 μmol/kg) of them were administered intracerebroventicularly, respectively. After the administration, rectal temperature was measured at 30, 60, 120, and 180 min. The area under curve (AUC) of the body temperature-time profile was calculated by the general trapezoidal method. In the control experiment, vehicle (saline) was administered to mice intravenously or intracerebroventicularly and the rectal temperature was measured by the same protocol. The effective dose, which can increase the average of body temperatures at 1° C. for 180 min in reserpine-induced hypothermia mice after intravenous or intracerebroventicular administration of the test compounds, is calculated by the following equation: [formula]
Effective dose: Dose which can increase the average of body temperatures at 1° C. for 180 min in reserpine-induced hypothermia mice.
AUC (test compounds): The area under curve (AUC) of the body temperature-time profile for 180 min after intravenous or intracerebroventicular administration of test, compounds was calculated by the general trapezoidal method.
AUC (vehicle): The area under curve (AUC) of the body temperature-time profile for 180 min after intravenous or intracerebroventicular administration of saline was calculated by the general trapezoidal method.

For data set [3] the test system is unchanged. As to the kind of experiment: Anti-reserpine action after oral administration of test compounds. The following applies: calculated from AUC of body temperature-time profile for 420 min after 10 μmol/kg. How it is done: Anti-recerpine Action After Oral Administration of Test Compounds
Reserpine-induced hypothemia mice (ddY, male, body weight: 30 to 40 g) were prepared by the subcutaneous administration of reserpine in back side of the […] (3 mg/kg) at 18 hours before test compounds administration. Mice with their body temperature about 25° C. were used in the experiment. Test compounds were solubilized in saline and 0.2 ml (10 μmol/kg) of them were administered by sonde for oral administration. After the administration, rectal temperature was measured at, 30, 60, 120, 180, 240, 300, and […]. The area under curve (AUC) of the body temperature-time profile was calculated by the general trapezoidal method. In the control experiment, vehicle (saline) was administered to mice and the rectal temperature was measured by the same protocol. The effective dose, which can increase the average of body temperature at 1° C. for 420 min in reserpine-induced hypothermia mice after oral administration of the test compounds, is calculated by the following equation: [formula]
Effective dose: Dose which can increase the average of body temperatures at 1° C. for 420 min in reserpine-induced hypothermia mice.
AUC (test compounds): The area under curve (AUC) of the body temperature-time profile for 420 min after oral administration of test compounds was calculated by the general trapezoidal method. […]

On to `NC(=O)[C@@H]1CCCN1C(=O)[C@H](Cc1cnc[nH]1)NC(=O)[C@@H]1CCC(=O)N1` [TRH, L-pyroglutamyl-L-histidyl-L-prolineamide], for which the “blood glucose level as a percentage compared to the baseline level (vehicle-treated rats = 100%)” value in data set [1] (Time 0 min) is 116.3%; in data set [1] (Time 5 min), 114.6%; in data set [1] (Time 15 min), 123.3%; in data set [1] (Time 30 min), 137.9%; in data set [1] (Time 60 min) it was 153.5%; in data set [1] (Time 120 min) it was 139.1%. For the same molecule, the “blood glucose level as a percentage compared to the baseline level (vehicle-treated rats = 100%)” value in data set [1] (Time 180 min) amounted to 119.1%; in data set [1] (Time 240 min), 112.6%; in data set [1] (Time 300 min) it was 113.2%; in data set [1] (Time 360 min) it was 103.5%; in data set [1] (Time 420 min) it was 102.6%; in data set [1] (Time 480 min) it was 97.1%. Also, the “acute rise of the blood glucose level and fall by the rebound after administration” value in data set [1] (result in words) is given as “acutely raises up the blood glucose level”. Further, in data set [2], the “Dose which can increase the average of body temperatures at 1° C. for 180 min in reserpine-induced hypothermia mice, administered intracerebroventicularly” value was 0.033 µmol/kg. The “Dose which can increase the average of body temperatures at 1° C. for 180 min in reserpine-induced hypothermia mice, administered intravenously” value in data set [2] (intravenous, calculated from AUC for 180 min after 1 μmol/kg) is 9.84 µmol/kg. Also, the “Dose which can increase the average of body temperatures at 1° C. for 420 min in reserpine-induced hypothermia mice by oral” value in data set [3] was 42.68 µmol/kg.
For the molecule `C[C@H]1OC(=O)N[C@H]1C(=O)N[C@@H](Cc1cscn1)C(=O)N1CCC[C@H]1C(N)=O` (mixture of isomers) [Compound I-10, cis-L-5-methyl-2-oxo-oxazolidine-4-yl-carbonyl-3-(4-thiazolyl)-L-alanyl-L-prolineamide], the “blood glucose level as a percentage compared to the baseline level (vehicle-treated rats = 100%)” value in data set [1] (Time 0 min) was found to be 107.7%; in data set [1] (Time 5 min) it was 119.9%; in data set [1] (Time 15 min), 104.3%; in data set [1] (Time 30 min), 109.1%; in data set [1] (Time 60 min) it was 112.1%; in data set [1] (Time 120 min), 126.5%. For the same molecule, the “blood glucose level as a percentage compared to the baseline level (vehicle-treated rats = 100%)” value in data set [1] (Time 180 min) stood at 105.3%; in data set [1] (Time 240 min) it was 110.9%; in data set [1] (Time 300 min), 104.0%; in data set [1] (Time 360 min) it was 100.4%; in data set [1] (Time 420 min) it was 102.6%; in data set [1] (Time 480 min), 111.8%. Further, in data set [2], the “Dose which can increase the average of body temperatures at 1° C. for 180 min in reserpine-induced hypothermia mice, administered intracerebroventicularly” value was 0.025 µmol/kg.
